Reference: article PMC11672299, “Conjugation of Polycationic Peptides Extends the Efficacy Spectrum of β‐Lactam Antibiotics” (Advanced Science, 2024)

How the values were obtained:
[1] = test system: A. baumannii SC300007 (Oxa23); experiment: microbe, parasite or virus in culture; format: cell-based; settings: Acinetobacter baumannii, 20 h, combinations: avibactam fixed 4 mg L^−1, clavulanic acid 2 mg L^−1, median (n = 3)
In short: (§1)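 Susceptibility is determined by broth microdilution, with inocula of 5 × 10^5 CFU mL^−1 in cation-adjusted MHB II and 20 h incubation at 37 ± 1 °C. For inhibitor combinations, clavulanic acid (2 mg L^−1) or avibactam (4 mg L^−1) is held constant following EUCAST guidance.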

[2] = test system: A. pittii Tü21‐041 (clinical isolate); experiment: microbe, parasite or virus in culture; format: cell-based; settings: Acinetobacter pittii; A. pittii Tü21‐041; median (n = 3); read-out: MIC
In short: as §1

[3] = test system: K. pneumoniae ATCC 700 603 (SHV‐18); experiment: microbe, parasite or virus in culture; format: cell-based; settings: Klebsiella pneumoniae, 20 h; K. pneumoniae ATCC 700603 (SHV‐18); combinations: avibactam fixed 4 mg L^−1, clavulanic acid 2 mg L^−1; median (n = 3)
In short: as §1

[4] = test system: C. freundii Tü21‐052 (clinical isolate); experiment: microbe, parasite or virus in culture; format: cell-based; settings: Citrobacter freundii; C. freundii Tü21‐052; median (n = 3); read-out: MIC
In short: as §1

E. coli ATCC 25 922 (–) = experiment: microbe, parasite or virus in culture; format: cell-based; settings: Escherichia coli, 20 h; E. coli ATCC 25922 (no β‐lactamase); combinations: avibactam fixed 4 mg L^−1, clavulanic acid 2 mg L^−1; median (n = 3)
In short: as §1

[5] = test system: K. pneumoniae 0 6841/Nr.45 (Oxa48); experiment: microbe, parasite or virus in culture; format: cell-based; settings: Klebsiella pneumoniae, 20 h; K. pneumoniae 06841/Nr.45 (Oxa48); combinations: avibactam fixed 4 mg L^−1, clavulanic acid 2 mg L^−1; median (n = 3)
In short: as §1

[6] = test system: E. coli Tü21‐031 (Oxa244, ESBL); experiment: microbe, parasite or virus in culture; format: cell-based; settings: Escherichia coli, combinations: avibactam fixed 4 mg L^−1, median (n = 3)
In short: as §1

[7] = test system: K. pneumoniae BL809453 (KPC); experiment: microbe, parasite or virus in culture; format: cell-based; settings: Klebsiella pneumoniae, 20 h, combinations: avibactam fixed 4 mg L^−1, clavulanic acid 2 mg L^−1, median (n = 3)
In short: as §1

PBP2A = target: T1, PBP2A (Bacillus subtilis, UniProt P54488); experiment: Gel‐based PBP affinity assay (Bocillin FL competition); format: binding; settings: B. subtilis membrane fractions, competition with Bocillin FL penicillin; compared with parent β‐lactam
T1 construct: endogenous in cells; host or cells: B. subtilis DSM 10, extracted membrane protein fraction

PBP5 = experiment: as above; format: binding; settings: PBPs from vancomycin‐resistant E. faecalis; compared with parent; at concentrations considerably higher than MICs
Gram‐positive bacteria = experiment: MIC compared with parent β‐lactam; format: cell-based
Procedure: (§2) The minimum inhibitory concentration (MIC) of the β‐lactam–peptide conjugates was determined by broth microdilution as previously described.^[ [17] ^] Briefly, in cation‐adjusted MHB II medium, a twofold serial dilution of the compounds was prepared in 96‐well round‐bottom polystyrene or polypropylene microtiter plates with each well containing 50 µL. The plates were inoculated with 50 µL bacterial suspension and the final inoculum, in a total volume of 100 µL, contained 5 × 10^5 CFU mL^−1. The microplates were incubated for 20 h at 37 ± 1 °C. The lowest concentration preventing visible bacterial growth was considered the MIC value. For susceptibility testing of combinations of β‐lactamase‐inhibitors with either a β‐lactam antibiotic or a β‐lactam–peptide conjugate, fixed concentrations of the inhibitors according to the EUCAST (European Committee on Antimicrobial Susceptibility Testing) guidelines (clavulanic acid = 2 mg L^−1, avibactam = 4 mg L^−1) were used.

E. faecalis (vanB) = experiment: MIC compared with parent β‐lactam; format: cell-based; settings: on a molar level
Procedure: as §2

Gram‐negative bacteria = experiment: MIC compared with parent β‐lactam; format: cell-based
Procedure: as §2

[8] = test system: Enterobacteriaceae (CTZ‐resistant); experiment: MIC compared with parent β‐lactam; format: cell-based
Procedure: as §2

T1 sequence (P54488 whole entry): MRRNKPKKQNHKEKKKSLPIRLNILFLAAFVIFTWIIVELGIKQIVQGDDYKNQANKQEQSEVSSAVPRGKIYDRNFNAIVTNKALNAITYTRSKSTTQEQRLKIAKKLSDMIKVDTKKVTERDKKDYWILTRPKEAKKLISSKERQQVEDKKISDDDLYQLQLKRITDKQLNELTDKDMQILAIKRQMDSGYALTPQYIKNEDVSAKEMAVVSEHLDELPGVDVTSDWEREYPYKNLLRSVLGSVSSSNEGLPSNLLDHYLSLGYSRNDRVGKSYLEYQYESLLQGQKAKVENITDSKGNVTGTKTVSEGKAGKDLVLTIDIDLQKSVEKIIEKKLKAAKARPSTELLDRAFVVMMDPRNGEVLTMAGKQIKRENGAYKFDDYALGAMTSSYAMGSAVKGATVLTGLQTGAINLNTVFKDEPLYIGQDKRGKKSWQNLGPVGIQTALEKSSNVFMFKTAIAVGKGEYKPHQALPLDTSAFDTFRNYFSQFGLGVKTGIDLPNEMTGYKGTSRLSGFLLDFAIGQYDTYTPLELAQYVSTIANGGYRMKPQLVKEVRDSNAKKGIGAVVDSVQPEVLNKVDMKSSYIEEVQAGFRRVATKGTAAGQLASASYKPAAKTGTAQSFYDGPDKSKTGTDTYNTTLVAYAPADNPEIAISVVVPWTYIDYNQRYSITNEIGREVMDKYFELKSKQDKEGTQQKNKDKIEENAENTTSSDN

## CC(C)(O/N=C(\C(=O)N[C@@H]1C(=O)N2C(C(=O)[O-])=C(C[n+]3ccccc3)CS[C@H]12)c1csc(N)n1)C(=O)O [CTZ, ceftazidime, reference compound]
[1]
  MIC: > 64 µg/mL
[2]
  MIC: 4 µg/mL
[3]
  MIC: 64 µg/mL
[4]
  MIC: 0.25 µg/mL
E. coli ATCC 25 922 (–)
  MIC: 0.25 µg/mL
[5]
  MIC: > 64 µg/mL
[6]
  MIC: 32 µg/mL
[7]
  MIC: > 64 µg/mL

## CC(C)(O/N=C(\C(=O)N[C@@H]1C(=O)N2C(C(=O)[O-])=C(C[n+]3ccccc3)CS[C@H]12)c1csc(N)n1)C(=O)NCCCCCCN1C(=O)CC(SC[C@H](NC(=O)[C@H](CCCNC(=N)N)NC(=O)[C@H](CCCNC(=N)N)NC(=O)[C@H](CCCNC(=N)N)NC(=O)[C@H](CCCNC(=N)N)NC(=O)[C@H](CCCNC(=N)N)NC(=O)[C@@H](N)CCCNC(=N)N)C(N)=O)C1=O (some centres unmarked) [CTZ-R6]
PBP2A
  affinity to PBP2A: significantly increased
PBP5
  binding to PBP5: slightly improved binding
Gram‐positive bacteria
  increase in antimicrobial activity versus CTZ (factor): ≈ 1000
E. faecalis (vanB)
  increase in antimicrobial activity versus CTZ: ~300 fold
Gram‐negative bacteria
  increase in antimicrobial activity versus CTZ (factor): 2–32
[8]
  increase in antimicrobial activity versus CTZ: ca. fourfold
